From patent publication US10689331B2, “IDO inhibitors” (Bristol-Myers Squibb Company, priority 2015, dated 2020)
pIC50: −log10 of the molar value.

Biological target: T1, human IDO1 (Homo sapiens, UniProt P14902)
T1 construct: expressed in transfected cells
Assay: HEK Human IDO-1 inhibition assay (kynurenine readout, Ehrlich reagent, absorbance 490 nm)
Format: cell-based
Details: human IDO1/HEK293 cells, incubated 20 hours with compound; 500 nM reference standard = 100% inhibition
How it was run: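 HEK293 cells stably expressing human IDO1, treated with compound for 20 h at 37 °C in phenol red-free RPMI/10% FBS. Kynurenine detected after TCA (0.2% final, 50 °C, 30 min) by Ehrlich reagent absorbance at 490 nm; IC50 normalised to 500 nM reference standard (100%) and DMSO (0%).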

T1 sequence (P14902 whole entry): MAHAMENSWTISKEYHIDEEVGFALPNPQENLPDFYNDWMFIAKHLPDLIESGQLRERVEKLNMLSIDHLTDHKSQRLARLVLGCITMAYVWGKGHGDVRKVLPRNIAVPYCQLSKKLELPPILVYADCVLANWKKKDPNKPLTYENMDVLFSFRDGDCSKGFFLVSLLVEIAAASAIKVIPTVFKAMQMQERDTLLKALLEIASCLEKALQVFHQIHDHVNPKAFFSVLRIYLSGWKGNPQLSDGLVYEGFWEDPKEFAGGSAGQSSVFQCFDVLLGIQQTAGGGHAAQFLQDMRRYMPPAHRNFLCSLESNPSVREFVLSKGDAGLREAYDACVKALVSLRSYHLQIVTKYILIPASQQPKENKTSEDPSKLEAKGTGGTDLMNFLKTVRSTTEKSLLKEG

Row | SMILES | pIC50
1 | COCC(Oc1ccc(N(CC(C)C)C2CCCCC2)c(NC(=O)Nc2ccc(C)cc2)c1)C(=O)O (single isomer, unassigned) [Example 90-1, 2-(4-(cyclohexyl(isobutyl)amino)-3-(3-(p-tolyl)ureido)phenoxy)-3-methoxypropanoic acid] | ≤ 7.00
2 | Cc1ccc(F)cc1NC(=O)Nc1cc(OCC(=O)O)ccc1N(CC(C)C)C1CCCCC1 [Example 30, 2-(4-(cyclohexyl(isobutyl)amino)-3-(3-(5-fluoro-2-methylphenyl)ureido)phenoxy)acetic acid] | ≤ 7.00
3 | CC(C)CN(c1ccc(OCC(=O)O)cc1NC(=O)Nc1nccs1)C1CCCCC1 [Example 12, 2-(4-(cyclohexyl(isobutyl)amino)-3-(3-(thiazol-2-yl)ureido)phenoxy)acetic acid] | ≤ 7.00
4 | CC(C)CN(c1ccc(OCC(=O)O)cc1NC(=O)Nc1ccc(N(C)C)cc1)C1CCCCC1 [Example 9, 2-(4-(cyclohexyl(isobutyl)amino)-3-(3-(4-(dimethylamino)phenyl)ureido)phenoxy)acetic acid] | ≤ 7.00
5 | C=C(C)CN(c1ccc(OC(C)C(=O)O)cc1NC(=O)Nc1ccc(Cl)cc1F)C1CCOCC1 (single isomer, unassigned) [Example 139-1, 2-(3-(3-(4-chloro-2-fluorophenyl)ureido)-4-((2-methylallyl)(tetrahydro-2H-pyran-4-yl)amino)phenoxy)propanoic acid] | > 7.00
6 | CC(C)CN(c1ccc(OCC(=O)O)cc1NC(=O)Nc1ccc(Cl)cc1F)C1CCOC1 (stereo not drawn) [Example 144, 2-(3-(3-(4-chloro-2-fluorophenyl)ureido)-4-(isobutyl(tetrahydrofuran-3-yl)amino)phenoxy)acetic acid] | ≤ 7.00
7 | Cc1cc(NC(=O)Nc2cc(OCC(=O)O)c(F)cc2N(CC(C)C)C2CCCCC2)on1 [Example 114, 2-(4-(cyclohexyl(isobutyl)amino)-2-fluoro-5-(3-(3-methylisoxazol-5-yl)ureido)phenoxy)acetic acid] | ≤ 7.00
8 | CC(C)CN(c1ccc(OCC(=O)O)cc1NC(=O)Nc1ccc(Cl)cc1F)C1CCOCC1 [Example 151, 2-(3-(3-(4-chloro-2-fluorophenyl)ureido)-4-(isobutyl(tetrahydro-2H-pyran-4-yl)amino)phenoxy)acetic acid] | ≤ 7.00

The next lines start with the values.

Row | pIC50 | SMILES
9 | > 7.00 | CC(C)CN(c1ccc(OC(C)C(=O)O)cc1NC(=O)Cc1ccc(Cl)c(F)c1)C1CCCCC1 (racemic) [Example 72, 2-(3-(2-(4-chloro-3-fluorophenyl)acetamido)-4-(cyclohexyl (isobutyl)amino)phenoxy)prop-anoic acid]
10 | > 7.00 | C=C(C)CN(CCCC(F)(F)F)c1cc(F)c(OCC(=O)O)cc1NC(=O)Nc1ccc(C)cc1 [Example 120]
11 | > 7.00 | CC(C)CN(c1cc(Cl)c(OCC(=O)O)cc1NC(=O)Nc1ccc(Cl)cc1F)C1CCCCC1 [Example 119, 2-(2-chloro-5-(3-(4-chloro-2-fluorophenyl)ureido)-4-(cyclohexyl(isobutyl)amino)phenoxy)acetic acid]
12 | > 8.30 | Cc1ccc(NC(=O)Nc2cc(OC(C)(C)C(=O)O)ccc2N(CC(C)C)C2CCCCC2)cc1 [Example 92, 2-(4-(cyclohexyl(isobutyl)amino)-3-(3-(p-tolyl)ureido)phenoxy)-2-methylpropanoic acid]
13 | > 8.30 | Cc1ccc(NC(=O)Nc2cc(OCC(=O)O)ccc2N(CC(C)C)C2CCCCC2)c(F)c1 [Example 23, 2-(4-(cyclohexyl(isobutyl)amino)-3-(3-(2-fluoro-4-methylphenyl)ureido)phenoxy) acetic acid]
14 | > 7.00 | Cc1ccc(CC(=O)Nc2cc(OCC(=O)O)ccc2N(CC(C)C)C2CCCCC2)c(F)c1 [Example 55, 2-(4-(cyclohexyl(isobutyl)amino)-3-(2-(2-fluoro-4-methylphenyl)acetamido)phenoxy)acetic acid]
15 | > 7.00 | O=C(O)COc1ccc(N(CC2CC2)C2CCCCC2)c(NC(=O)Nc2cc(F)ccc2F)c1 [Example 130]
